Laboratory results as given in US20250288645A1, “USE OF GsMTx4 AND GsMTx4 CONJUGATES TO IMPROVE RECOVERY FROM JOINT INJURY” (priority 2023, published 2025).
No end group written: not given here.

What was measured:
chondrocytes = test: Massive rotator cuff tear mouse model: chondrocyte mechano-vulnerability; type: in vivo; conditions: rotator cuff injury, subcutaneous injection; versus contralateral control joint and saline-injected animals
Protocol: Ethical approval was obtained from the appropriate institutional committee Humeri were harvested from wild-type 12-22 week old C57Bl/6 male and female mice. Each specimen was placed in calcium imaging buffer with 2 mM calcium chloride and subsequently incubated with 10 μM calcein-AM for 30 minutes at 37° C. To indicate intracellular esterase activity of living cells, each specimen was incubated with 10 μM yoda1, a Piezo1-specific agonist, 5 nM GSK101, a TRPV4-agonist, or control (DMSO 0.25%, n=7-10/group) in calcium imaging buffer for 15 minutes. Specimens were then incubated with 1.5 nM ethidium homodimer-1 for 3 minutes to indicate loss of plasma membrane integrity in dead cells. The specimen was then arranged in a custom 3-D printed holding device such that the chondrocytes within the apex of sphericity of the humeral head were facing the glass well of a dish to be imaged on an inverted confocal microscope. […] A custom MATLAB image processing algorithm was developed to quantify cell viability. […] Then, watershed segmentation, distance transform, and centroid approximation algorithms were created and applied to segment and quantify individual cells based on intensity values. This facilitated the cell counting process, allowed quantification of the total cell area, and allowed adjustment of the region of interest between before- and after-impact micrographs. […]

C57Bl/6 male mice = test: Massive rotator cuff tear (RCT) mouse model: humeral head cartilage histology; type: in vivo
Protocol: A massive rotator cuff tear (RCT) model was performed by surgical ligation of the supraspinatus and infraspinatus tendons of the right shoulder of 14-week-old C57Bl/6 male and female mice through a deltoid splitting approach. Mice were anesthetized with 2% isoflurane gas mixed with oxygen. A single dose of buprenorphine SR (0.5 mg/kg) was injected subcutaneously at the nape. The right shoulder was prepped using a chemical hair removal agent, followed by betadine solution for 2 minutes and a rinse with 70% ethanol. The remaining steps were performed under sterile technique. A #11 scalpel blade was used to sharply incise the skin and subcutaneous tissues in a longitudinal incision over the palpable border of the lateral shoulder. The deltoid fascia and muscle were sharply incised in line with the skin incision with care not to dissect distally along the humerus to protect the axillary nerve. A pair of forceps were then used to grasp the proximal humerus and pull laterally to place the glenohumeral joint on gentle tension. A 25G needle was passed under the supraspinatus and infraspinatus tendons. […] Animals were monitored daily for 3 days post-operatively, and no adverse events were noted. […]
Humeri were harvested and chondrocyte mechano-vulnerability was quantified before and after 2 mJ impact according to methods above. […]

GsMTx4 (GCLEFWWKCNPNDDKCCRPKLKCSKLFKLCNFSF-NH2; ends and bridges not checked; listed as Grammostola spatulata)
chondrocyte vulnerability (chondrocytes): reduction in chondrocyte vulnerability
average humeral head cartilage thickness (C57Bl/6 male mice; RC ligation, subcutaneous twice weekly, 14 weeks post-operatively, GsMTx4 versus saline or contralateral control joint): no difference in average humeral head cartilage thickness
cartilage degeneration of shoulder (C57Bl/6 male mice; RCT, treated post-injury, versus animals not treated post-injury with GsMTx4): reduced cartilage degeneration
